Reference: ChEMBL document CHEMBL1128876, “Nitrogen transfer in E. coli glucosamine-6P synthase. Investigations using substrate and bisubstrate analogs” (Bioorg Med Chem Lett, 1995)

Assays:
[1] = Tested for inhibition of glucosamine-6P synthase; set-up: species or system Escherichia coli
[2] = Tested for inhibition of fructose-6P synthase

| Ki [1] [µM] | Ki [2] [µM] | SMILES |
| --- | --- | --- |
| 0.15 | – | NC(=O)/C=C/C(=O)NCC(N)C(=O)O (centres undefined) |
| 0.22 | – | NC(CC1CCC(=O)C2OC12)C(=O)O (centres undefined) |
| – | 25 | NC(CO)C(O)C(O)C(O)COP(=O)(O)O (centres undefined) |
| 23 | – | O=C(O)C1CCC=N1 (racemic) |
